“Also recorded” adds a separate entry of the source.
Assays:
[1] = test system: locally advanced or metastatic ER+HER2−BC; test: Tumor response and progression-free survival, phase 1 dose escalation; type: in vivo, human
Excerpt: Example 3 reports Clinical and Genomics Analysis of a single trial. The Study Population in Example 3 was as follows: • Women ≥18 years old with locally advanced or metastatic ER+HER2−BC. • Progression on at least one hormonal therapy and at least one additional therapy/regimen; no maximum number of prior lines of therapy. • ECOG performance status of 0 or 1. • Adequate bone marrow and organ function. • Excluded if had bone-only disease or inflammatory BC.
Methods were used to analyze whether H3B-6545 inactivates both wild-type and mutant ERα by targeting cysteine 530 and enforcing a unique antagonist conformation. Methods: Women with locally advanced or metastatic HR+BC are treated (tx) with H3B-6545 drug product administered once daily orally by capsule over a 28 day cycle after progression on at least one hormonal therapy and at least one additional therapy/regimen. Dose escalation uses a 3+3 design with the option to backfill previously cleared doses and allows for intrapatient dose escalation. This example explored the safety, pharmacokinetics and pharmacodynamics of H3B-6545 in women with HR+BC to identify a recommended subsequent dose for testing.
• H3B-6545 administered once daily orally over a 28 day cycle. • Dose escalation using a standard 3+3 study design using dose cohorts of 100, 200, 300, 450, and 600 mg QD. • Patients allowed to backfill previously cleared doses. • Intra-patient dose escalation allowed after completion of Cycle 3. Results (as of Apr. 20, 2019) Patient Population: • 46 patients were treated with H3B-6545 at doses of 100 to 600 mg QD. • 42 (91.3%) patients received a prior CDK4/6 inhibitor and 32 (69.6%) prior fulvestrant. • 30 (65.2%) patients received ≥3 prior anti-cancer therapy lines in the advanced/metastatic setting.

[2] = Plasma PK of capsules vs tablets in healthy human subjects, relative bioavailability; type: in vivo; conditions: capsules and tablets
Experimental: Blood samples were collected at the planned time points from each patient and centrifuged. The plasma portion of each sample was then transferred to a K2EDTA tube, which was then shipped to a bioanalytical lab for concentration measurement using LC-MS/MS. The concentration data were then analyzed using Phoenix® WinNonlin software to obtain PK parameters. The obtained PK parameters were further summarized using analytical software.
Blood samples (approximately 5 mL each) were collected from human patients pre-dose and at various hourly time points post-dose. Plasma concentrations of H3B-6545 were determined using a validated high-performance liquid chromatography/tandem mass spectrometry (LC-MS/MS) method. The lower limit of quantification was 0.100 ng/mL.
The PK Analysis Set included subjects who received H3B-6545 drug product in capsules or tablets and had sufficient evaluable plasma concentration data to derive at least 1 primary PK parameter in each treatment. […]
Pharmacokinetic parameters of H3B-6545 were calculated using noncompartmental methods, using an appropriate model for plasma data and extravascular administration. The PK parameters included, but were not limited to, area under the curve to the time of the last quantifiable concentration (AUC0-t), maximum concentration (Cmax), and time at which the maximum concentration occurred (tmax). […]

[3] = test system: ctDNA (ESR1, PIK3CA and AKT1 mutations); test: ctDNA mutant allele frequency monitoring (BEAMing, ddPCR) in plasma; type: in vivo, human
Excerpt: Fresh plasma samples were collected at baseline (predose), cycle 1 day 15 (CID15), C2D1, C3D1 and every 8 weeks thereafter with a final sample collection at disease progression. At baseline, BEAMing digital PCR was used to evaluate hotspot mutations in ESR1, PIK3CA and AKT1. Patient specific ctDNA mutations were subsequently monitored by ddPCR. Baseline tumor biopsies were subjected to a targeted Next Generation Sequencing (NGS) panel to identify hotspot mutations.
• H3B-6545 administered once daily orally (PO QD) over a 28-day cycle • Dose escalation using a standard 3+3 study design using dose cohorts of 100, 200, 300, 450, and 600 mg/day
Liquid biopsy assays: 10 ml of Strek plasma was collected at the site and then processed into plasma at Sysmex Inostics. cfDNA was isolated from 2 ml of plasma for BEAMing and 3 ml for Biorad ddPCR

[4] = Total (N = 46), 100 to 600 mg QD
[5] = as of Apr. 20, 2019, 46 patients, 100 to 600 mg QD

With `CN(C)C(=O)/C=C/CNCCOc1ccc(/C(=C(/CC(F)(F)F)c2ccccc2)c2ccc3[nH]nc(F)c3c2)cn1` [H3B-6545, (E)-N,N-dimethyl-4-[2-[5-[(Z)-4,4,4-trifluoro-1-(3-fluoro-1H-indazol-5-yl)-2-phenylbut-1-enyl]pyridin-2-yl]oxyethylamino]but-2-enamide] the “Best Overall Response: Complete Response (CR)” value (“Best Overall Response … (CR)” below) ([1]; 100 mg QD (N = 6)) was 0 (0.0) n (%), the “Best Overall Response: Not Evaluable (NE)” value ([1]; 100 mg QD (N = 6)) was 0 (0.0) n (%) and the “Best Overall Response: Partial Response (PR)” value (“Best Overall Response … (PR)” below) ([1]; 100 mg QD (N = 6)) was 1 (16.7) n (%). For the same molecule, the “Best Overall Response: Progressive Disease (PD)” value (“Best Overall Response … (PD)” for short) ([1]; 100 mg QD (N = 6)) was 0 (0.0) n (%), the “Best Overall Response: Unknown (UNK)” value ([1]; 100 mg QD (N = 6)) was 0 (0.0) n (%) and the “Objective Responses (CR + PR)” value ([1]; 100 mg QD (N = 6)) was 1 (16.7) n(%). The “Progressive-Free Survival, Median (95% CI)” value ([1]; 100 mg QD (N = 6)) was 9.3 (7.4, NE) months, the “Progressive-Free Survival, Q1 (95% CI)” value ([1]; 100 mg QD (N = 6)) was 7.5 (7.4, 11.0) months and the “Best Overall Response … (CR)” value ([1]; 200 mg QD (N = 12)) was 0 (0.0) n (%). The “Best Overall Response: Not Evaluable (NE)” value ([1]; 200 mg QD (N = 12)) was 4 (33.3) n (%), the “Best Overall Response … (PR)” value ([1]; 200 mg QD (N = 12)) was 1 (8.3) n (%) and the “Best Overall Response … (PD)” value ([1]; 200 mg QD (N = 12)) was 2 (16.7) n (%). For the same molecule, the “Best Overall Response: Unknown (UNK)” value ([1]; 200 mg QD (N = 12)) was 1 (8.3) n (%), the “Objective Responses (CR + PR)” value ([1]; 200 mg QD (N = 12)) was 1 (8.3) n(%) and the “Progressive-Free Survival, Median (95% CI)” value ([1]; 200 mg QD (N = 12)) was 5.5 (0.9, NE) months. The “Progressive-Free Survival, Q1 (95% CI)” value ([1]; 200 mg QD (N = 12)) was 1.5 (0.9, 5.5) months, the “Best Overall Response … (CR)” value ([1]; 300 mg QD (N = 11)) was 0 (0.0) n (%) and the “Best Overall Response: Not Evaluable (NE)” value ([1]; 300 mg QD (N = 11)) was 3 (27.3) n (%). The “Best Overall Response … (PR)” value ([1]; 300 mg QD (N = 11)) was 0 (0.0) n (%), the “Best Overall Response … (PD)” value ([1]; 300 mg QD (N = 11)) was 5 (45.5) n (%) and the “Best Overall Response: Unknown (UNK)” value ([1]; 300 mg QD (N = 11)) was 0 (0.0) n (%). The “Objective Responses (CR + PR)” value ([1]; 300 mg QD (N = 11)) was 0 (0.0) n(%), the “Progressive-Free Survival, Median (95% CI)” value ([1]; 300 mg QD (N = 11)) was 1.8 (1.6, 5.4) months and the “Progressive-Free Survival, Q1 (95% CI)” value ([1]; 300 mg QD (N = 11)) was 1.8 (1.6, 1.8) months. The “Progressive-Free Survival, Q3 (95% CI)” value ([1]; 300 mg QD (N = 11)) was 5.4 (1.8, NE) months, the “Best Overall Response … (CR)” value ([1]; 450 mg QD (N = 10)) was 0 (0.0) n (%) and the “Best Overall Response: Not Evaluable (NE)” value ([1]; 450 mg QD (N = 10)) was 3 (30.0) n (%). The “Best Overall Response … (PR)” value ([1]; 450 mg QD (N = 10)) was 1 (10.0) n (%), the “Best Overall Response … (PD)” value ([1]; 450 mg QD (N = 10)) was 3 (30.0) n (%) and the “Best Overall Response: Unknown (UNK)” value ([1]; 450 mg QD (N = 10)) was 0 (0.0) n (%). The “Objective Responses (CR + PR)” value ([1]; 450 mg QD (N = 10)) was 1 (10.0) n(%), the “Progressive-Free Survival, Median (95% CI)” value ([1]; 450 mg QD (N = 10)) was 7.2 (1.8, 7.3) months and the “Progressive-Free Survival, Q1 (95% CI)” value ([1]; 450 mg QD (N = 10)) was 1.9 (1.8, 7.2) months. For the same molecule, the “Progressive-Free Survival, Q3 (95% CI)” value ([1]; 450 mg QD (N = 10)) was 7.3 (2.1, 7.5) months, the “Best Overall Response … (CR)” value ([1]; 600 mg QD (N = 7)) was 0 (0.0) n (%) and the “Best Overall Response: Not Evaluable (NE)” value ([1]; 600 mg QD (N = 7)) was 4 (57.1) n (%). For the same molecule, the “Best Overall Response … (PR)” value ([1]; 600 mg QD (N = 7)) was 0 (0.0) n (%), the “Best Overall Response … (PD)” value ([1]; 600 mg QD (N = 7)) was 1 (14.3) n (%) and the “Best Overall Response: Unknown (UNK)” value ([1]; 600 mg QD (N = 7)) was 0 (0.0) n (%). For the same molecule, the “Objective Responses (CR + PR)” value ([1]; 600 mg QD (N = 7)) was 0 (0.0) n(%), the “Best Overall Response … (CR)” value [1, 4] was 0 (0.0) n (%) and the “Best Overall Response: Not Evaluable (NE)” value [1, 4] was 14 (30.4) n (%). For the same molecule, the “Best Overall Response … (PR)” value [1, 4] was 3 (6.5) n (%), the “Best Overall Response … (PD)” value [1, 4] was 11 (23.9) n (%) and the “Best Overall Response: Unknown (UNK)” value [1, 4] was 1 (2.2) n (%). For the same molecule, the “Objective Responses (CR + PR)” value [1, 4] was 3 (6.5) n(%), the “Progressive-Free Survival, Median (95% CI)” value [1, 4] was 7.2 (1.9, 7.4) months and the “Progressive-Free Survival, Q1 (95% CI)” value [1, 4] was 1.8 (1.6, 2.1) months. The “Progressive-Free Survival, Q3 (95% CI)” value [1, 4] was 7.5 (7.3, NE) months, the “Stable disease, patients” value ([1]; as of 10 Dec. 2018, 32 patients, 100 to 450 mg/day) was 15 patients and the “At least 6 months of therapy completed, % of patients” value [1, 5] was 30.4%. The “At least 6 months of therapy completed, patients” value [1, 5] was 14 patients, the “Confirmed partial response, % of patients” value [1, 5] was 6.5% and the “Confirmed partial response, patients” value [1, 5] was 3 patients. The “Stable disease, % of patients” value [1, 5] was 37.0%, the “Stable disease, patients” value [1, 5] was 17 patients and the mPFS ([1]; heavily pre-treated, post CDK4/6i setting, 46 patients) was 7.2 months. The “response of case study patient” value ([1]; patient case study, 450 mg QD, after 4 cycles) was “partial response”, the “decrease in the sum of the diameters of all target lesions” value ([1]; patient case study, 450 mg QD, baseline to C3D1) was −27.8% and the “decrease in the sum of the diameters of all target lesions” value ([1]; patient case study, 450 mg QD, baseline to C7D1) was −35.6%. For the same molecule, the tolerability [2] was “well-tolerated”, the “changes in mutant allele frequencies versus response” value ([3]; plasma) was “show correlation in response to treatment; also recorded: show correlation to clinical response” and the “ctDNA levels by C2D1 in patients with confirmed partial response” value ([3]; serial ctDNA monitoring) was “undetectable”. For the same molecule, the “patients with confirmed partial responses whose ctDNA levels were undetectable by C2D1” value ([3]; serial ctDNA monitoring) was 3/3 and the “patients with progressive disease whose ctDNA levels increased from baseline” value ([3]; serial ctDNA monitoring) was 3/4.
